Experimental data reported in paper PMC4343023, “Selectivity of odorant-binding proteins from the southern house mosquito tested against physiologically relevant ligands” (Frontiers in Physiology, 2015).
Like-named read-outs stand apart in the source and are kept apart here.

Key:
[1] = system: Mosquitoes with reduced transcripts of CquiOBP1; set-up: method as in Pelletier et al., 2010; details: ref Pelletier et al., 2010; cited from earlier work
CquiOBP1 [2] = target: T1, CquiOBP1 (Culex quinquefasciatus, UniProt Q8T6I2); test: pH-dependent binding assay; details: CquiOBP1-NPN quenching by ligand, pH 4.5 to 8, 4PL fit
T1 sequence (Q8T6I2 entry or part of it): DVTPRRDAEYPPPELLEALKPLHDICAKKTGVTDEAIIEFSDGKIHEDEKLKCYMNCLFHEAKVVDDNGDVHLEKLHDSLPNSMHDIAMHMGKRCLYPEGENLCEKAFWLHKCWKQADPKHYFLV
Description: To investigate the effects of pH on CquiOBP1–ligand complexes, fluorescence binding assay was measured between CquiOBP1 and three best ligands at different pH values. Buffer were prepared into two different ways: starting from 1M phosphate buffer, pH 4, pH was increased and adjusted by adding sodium hydroxide. Then protein was added to make a solution at each tested pH from 4.5 to 8. Experiments were repeated starting from pH 8 and lowering the pH by adding hydrochloric acid. Each tested solution had 200 mM buffer and 10 μg/ml (microgram) of CquiOBP1. As there were no significant differences in fluorescence data generated at a certain pH regardless of having the pH raised by adding NaOH or lowered by addition of HCl, data were pooled for subsequent analysis.
The pH of the midpoint transitions was obtained by non-linear fitting, sigmoidal with an equation for four-parameter logistic (4PL) of curve segments between the lowest and highest decrease in fluorescence (the rising part of each curve). The pH values calculated for the midpoint transitions with MOP, picaridin, and nonanal were 6.3, 5.8, and 5.5, respectively. Although the pH at the surface of dendritic membrane is not known, it is predicted that too low midpoint transition may lead to odorants being trapped in OBPs and not being properly delivered. In short, the acidity at the surface of the membrane may not be enough to trigger release of a ligand with too low midpoint transition pH. By considering only the dissociation constants obtained by in vitro binding assays (Table 1), one could reasonably argue that CquiOBP1 is involved in reception of nonanal. […] Next, we compared how these ligands would interact with CquiOBP1.

CquiOBP5 = CquiOBP5 (Culex quinquefasciatus, UniProt C7BDZ9); test: biochemical; type: binding; details: for Int (fluorescence emission): residual NPN fluorescence, normalized to 100 prior to ligand, screen at 2–20 μM ligand
Chain of CquiOBP5 (C7BDZ9 entry or part of it): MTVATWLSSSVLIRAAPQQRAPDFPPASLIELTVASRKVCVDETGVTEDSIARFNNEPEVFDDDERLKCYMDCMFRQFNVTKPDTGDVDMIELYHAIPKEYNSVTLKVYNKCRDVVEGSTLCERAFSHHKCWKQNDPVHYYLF
Description: (§1) Binding affinity (Ban et al., [2002]) was tested with a panel of 34 compounds, including attractants, a mosquito oviposition pheromone, repellents, terpenoids and other putative mosquito attractants or repellents. Unless otherwise specified, they were purchased from Sigma-Aldrich/Fluka/Acros (St. Louis, MO). Repellents: DEET (N,N-diethyl-3-methylbenzamide), PMD (p-mentan-3,8-diol) (Bedoukian Research, Inc.), picaridin (butan-2-yl 2-(2-hydroxyethyl)piperidine-1-carboxylate), IR3535 (ethyl 3-[acetyl(butyl)amino]propanoate) (gifts from Dr. Kamal Chauhan, USDA, ARS, Beltsville), (±)-citronellal, and ethyl 2-phenylacetate. Oviposition attractants: (5R,6S)-6-acetoxy-5-hexadecanolide, MOP (Bedoukian Research, Inc.), skatole, indole, 4-methylphenol, and 4-ethylphenol. Human derived compounds: nonanal, 6-methyl-5-hepten-2-one (sulcatone). Terpenoids and other putative attractants/repellents: linalool, linalool oxide, eucalyptol, camphor, fenchone, thujone, geranyl acetate, eugenol, (Z)-3-hexenyl acetate, 1-octen-3-ol, 1-octyn-3-ol, 3-octanol, 1-hexanol, methylcyclohexanol, methyl salicylate, cyclohexanone, acetophenone, benzaldehyde, 3,5-dimethoxybenzene, 1,2-dimethoxybenzene, and 2-phenylethanol.
(§2) Fluorescence spectra were recorded in a right angle configuration on a spectrofluorimeter (RF-5301, Shimadzu, Kyoto, Japan) at room temperature using a 1 cm light path fluorimeter quartz cuvette. Slit widths of 10 nm were selected for both excitation and emission. N-phenyl-1-naphthylamine (NPN, or 1-NPN) (Ban et al., [2002]) was dissolved in methanol to yield a 1 mM stock solution. The binding affinity for NPN was determined by adding aliquots of NPN into a 10 μg/ml (microgram) protein sample. NPN was excited at 337 nm and emission spectra were recorded at high speed scanning between 350 and 500 nm. All ligands used in competition experiments were dissolved in spectrophotometric grade methanol. Binding data were collected in three independent measurements. Bound ligand was evaluated from fluorescence intensity assuming that the protein was 100% active, with a stoichiometry of 1:1 (protein: ligand) at saturation. The KNPN values were estimated using Prism 5 (GraphPad Software, Inc., La Jolla, CA) by non-linear regression for a unique site of binding. The curves were linearized using Scatchard plots. Dissociation constants of the competitors were calculated according to Campanacci et al. ([2001]) from the corresponding IC50 values in the equation: Kdiss = [IC50]/1+[NPN]/KNPN, where [NPN] is the free concentration of NPN and KNPN is the dissociation constant of the complex protein/NPN.

CquiOBP2 = CquiOBP2 (Culex quinquefasciatus, UniProt C7BDZ6); test: biochemical; type: binding; details: for Int (fluorescence emission): residual NPN fluorescence, normalized to 100 prior to ligand, screen at 2–20 μM ligand
Chain of CquiOBP2 (C7BDZ6 entry or part of it): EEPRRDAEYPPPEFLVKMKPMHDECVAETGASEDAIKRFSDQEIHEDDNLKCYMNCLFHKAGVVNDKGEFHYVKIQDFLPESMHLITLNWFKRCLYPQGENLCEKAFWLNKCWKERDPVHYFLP
Description: as §1, §2

CquiOBP1 [3] = target: T1, CquiOBP1; test: biochemical; type: binding; details: for Int (fluorescence emission): residual NPN fluorescence, normalized to 100 prior to ligand, screen at 2–20 μM ligand
Description: as §1, §2

AgamOBP1 = system: AgamOBP1; set-up: method as in Biessmann et al., 2010; details: ref Biessmann et al., 2010; cited from earlier work
AaegOBP1 = system: AaegOBP1; set-up: method as in Leal and Leal, 2015; details: ref Leal and Leal, 2015; cited from earlier work
AfunOBP1 = system: AfunOBP1; set-up: method as in Xu et al., 2010; details: panel of EAG-active compounds; ref Xu et al., 2010; cited from earlier work
[4] = CquiOBP5, NPN displacement titration, read-out: IC50
[5] = CquiOBP5, calculated from IC50 of NPN displacement, read-out: Kd
[6] = CquiOBP2, NPN displacement titration, read-out: IC50
[7] = CquiOBP2, calculated from IC50 of NPN displacement, read-out: Kd
[8] = CquiOBP1, NPN displacement titration, read-out: IC50
[9] = CquiOBP1, calculated from IC50 of NPN displacement, read-out: Kd

SMILES	IC50 (CquiOBP5; [4]) [µM]	Kd (CquiOBP5; [5]) [µM]	Int (fluorescence emission) (CquiOBP5; CquiOBP5)	IC50 (CquiOBP2; [6]) [µM]	Kd (CquiOBP2; [7]) [µM]	Int (fluorescence emission) (CquiOBP2; CquiOBP2)	IC50 (CquiOBP1 [3]; [8]) [µM]	Kd (CquiOBP1 [3]; [9]) [µM]	Int (fluorescence emission) (CquiOBP1 [3]; CquiOBP1)	IC50 (CquiOBP5) [µM]	Kd (CquiOBP5) [µM]	IC50 (CquiOBP2) [µM]	Kd (CquiOBP2) [µM]	IC50 (CquiOBP1 [3]) [µM]	Kd (CquiOBP1 [3]) [µM]	also measured
CCCCCCCCC=O [Nonanal, nonanal]	8.3	5.8	46.5	> 10	> 2.5	87	10.5	6.6	51.4							EAG responses, knockdown vs wild type [1]: not significantly different; pH of the midpoint transition (CquiOBP1 [2]): 5.5
CCC(C)OC(=O)N1CCCCC1CCO (centres unmarked) [Picaridin, butan-2-yl 2-(2-hydroxyethyl)piperidine-1-carboxylate]			45			77			51	7.9	5.6	> 10	> 2.5	10.2	6.4	pH of the midpoint transition (CquiOBP1 [2]): 5.8
c1ccc2[nH]ccc2c1 [Indole, indole]	> 10	> 7	80	> 10	> 2.5	87	> 10	> 6.3	86							binding to AgamOBP1 (AgamOBP1): selectively bind
CCCCCCCCCC[C@H](OC(C)=O)[C@H]1CCCC(=O)O1 [MOP, (5R,6S)-6-acetoxy-5-hexadecanolide]	10.3	7.2	52	> 10	> 2.5	86	8.4	5.3	48							EAG responses, knockdown vs wild type [1]: significant lower; pH of the midpoint transition (CquiOBP1 [2]): 6.3; binding to CquiOBP5 (in words) (CquiOBP5; in vitro, NPN displacement): bound; binding to CquiOBP2 (in words) (CquiOBP2; in vitro, NPN displacement): cannot displace NPN; binding to CquiOBP1 (in words) (CquiOBP1 [3]; in vitro, NPN displacement): bound; binding to AaegOBP1 (AaegOBP1): bound
COc1ccccc1OC [1,2-Dimethoxybenzene, 1,2-dimethoxybenzene]	> 10	> 7	87	> 10	> 2.5	91	> 10	> 6.3	88							
CC(=O)CCC=C(C)C [Sulcatone, 6-methyl-5-hepten-2-one]			66			84			87	> 10	> 7	> 10	> 2.5	> 10	> 6.3	
c1ccc(Nc2cccc3ccccc23)cc1 [NPN, N-phenyl-1-naphthylamine]																Kd (CquiOBP5; direct titration of CquiOBP5 (10 μg/ml) with NPN, read-out: Kd for NPN): 2.3 ± 0.19 µM; Kd (CquiOBP2; direct titration of CquiOBP2 (10 μg/ml) with NPN, read-out: Kd for NPN): 0.5 ± 0.02 µM; Kd (CquiOBP1 [3]; direct titration of CquiOBP1 (10 μg/ml) with NPN, read-out: Kd for NPN): 1.71 ± 0.13 µM
CCCCCCCCCC(C)=O [2-undecanone]																binding to AfunOBP1 (AfunOBP1): best ligand
CC1CCC(O)CC1 (centres unmarked) [4-Methylcyclohexanol]	> 10	> 7	93	> 10	> 2.5	88	> 10	> 6.3	88							
O=Cc1ccccc1 [Benzaldehyde, benzaldehyde]			93			91			83	> 10	> 7	> 10	> 2.5	> 10	> 6.3	
CC(C)[C@]12CC(=O)[C@H](C)[C@H]1C2 [Thujone, thujone]			90			87			96	> 10	> 7	> 10	> 2.5	> 10	> 6.3	
Cc1cc(C)cc(O)c1 [3,5-Dimethylphenol]	> 10	> 7	93	7.4	1.9	40	> 10	> 6.3	84							
